Reference: patent publication US20210292340A1, “CELL NECROSIS INHIBITOR, PREPARATION METHOD THEREFOR AND USE THEREOF” (SHANGHAI INSTITUTE OF ORGANIC CHEMISTRY, CHINESE ACADEMY OF …, priority 2018, published 2021)

What follows are compounds tested on Jurkat (FADD−/−) cells (assay: Inhibition of TNF-induced programmed Jurkat (FADD−/−) cell necrosis (Cell Titer-Glo)). Conditions: Homo sapiens, Jurkat, 20 h, TNF 10 ng/mL, intracellular ATP level, read-out: Cellular IC50 (M) Jurkat (FADD−/−).
Type: cell-based, human
Procedure: Two replicate wells were set for each concentration of each compound.
Jurkat (FADD^−/−) cells (human-derived peripheral blood leukemia T cell line, with FADD gene knocked out) were cultured in vitro. After growing to logarithmic growth phase, the cells were harvested, and centrifuged at 1000 rpm for 5 min. The supernatant was discarded, and the cells were resuspended in fresh medium and adjusted to a cell density of 5×10^5/mL. The cell suspension was added to the culture plate containing the drug (40 μL per well). In the treatment groups, 10 μL of TNF (tumor necrosis factor, final concentration 10 ng/mL) diluted with the cell culture medium was added to each well, and incubated for 20 h in a cell incubator (37° C., 5% CO2). Subsequently, 50 μL of Cell Titer-Glo solution was added to each well and incubated at room temperature for 10 min. Then, the luminescence was detected on BioTek plate reader to measure the intracellular ATP level. The effect of the test compounds in inhibiting TNF-induced cell necrosis was calculated from the full-activity well and background well (with the untreated DMSO control well as 100% cell viability), and the half inhibitory concentration (IC50) of the compound was calculated by Graphpad Prism statistical software.

SMILES | IC50
CN1C(=O)[C@@H](NC(=O)c2n[nH]c(Cc3ccccc3)n2)COc2ccccc21 [GSK2982772, reference compound] | 9.7e-10 M
CN1C(=O)[C@@H](NC(=O)c2n[nH]c(Cc3ccccc3)n2)CSc2cc3[nH]ccc3cc21 [RIP1-001] | 1.38e-09 M
CN1C(=O)[C@@H](NC(=O)c2cc(Cc3ccccc3)on2)CSc2cc3[nH]ccc3cc21 [RIP1-003] | 6.91e-10 M
CN1C(=O)[C@@H](NC(=O)c2cnn(Cc3ccccc3)c2)CSc2cc3[nH]ccc3cc21 [RIP1-004] | 5.63e-08 M
CN1C(=O)[C@@H](NC(=O)c2cncn2Cc2ccccc2)CSc2cc3[nH]ccc3cc21 [RIP1-005] | > 2e-06 M
CN1C(=O)[C@@H](NC(=O)c2cn(Cc3ccccc3)cn2)CSc2cc3[nH]ccc3cc21 [RIP1-006] | 1.25e-09 M
CN1C(=O)[C@@H](NC(=O)c2cccc(Cc3ccccc3)c2)CSc2cc3[nH]ccc3cc21 [RIP1-007] | 3.4e-07 M
CN1C(=O)[C@@H](NC(=O)c2ncn(Cc3ccccc3)n2)CSc2cc3[nH]ccc3cc21 [RIP1-008] | 2.4e-10 M
CN1C(=O)[C@@H](NC(=O)c2cc(Cc3ccccc3)on2)CSc2cc3c(ccn3C)cc21 [RIP1-009] | 1.08e-09 M
CN1C(=O)[C@@H](NC(=O)c2cnn(Cc3ccccc3)c2)CSc2cc3c(ccn3C)cc21 [RIP1-010] | 9.6e-08 M
CN1C(=O)[C@@H](NC(=O)c2cccc(Cc3ccccc3)c2)CSc2cc3c(ccn3C)cc21 [RIP1-011] | 3.24e-07 M
CN1C(=O)[C@@H](NC(=O)c2ncn(Cc3ccccc3)n2)CSc2cc3c(ccn3C)cc21 [RIP1-012] | 1.22e-09 M
CN1C(=O)[C@@H](NC(=O)c2n[nH]c(Cc3ccccc3)n2)CSc2cc3[nH]ncc3cc21 [RIP1-013] | 5.3e-10 M
CN1C(=O)[C@@H](NC(=O)c2cnn(Cc3ccccc3)c2)CSc2cc3[nH]ncc3cc21 [RIP1-014] | 2.6e-08 M
CN1C(=O)[C@@H](NC(=O)c2cn(Cc3ccccc3)cn2)CSc2cc3[nH]ncc3cc21 [RIP1-016] | 2.3e-10 M
CN1C(=O)[C@@H](NC(=O)c2cncn2Cc2ccccc2)CSc2cc3[nH]ncc3cc21 [RIP1-017] | > 2e-06 M
CC(=O)n1ncc2cc3c(cc21)SC[C@H](NC(=O)c1cc(Cc2ccccc2)on1)C(=O)N3C [RIP1-018] | 2.7e-10 M
CN1C(=O)[C@@H](NC(=O)c2cn(Cc3ccccc3)nn2)CSc2cc3[nH]ncc3cc21 [RIP1-019] | 6.8e-10 M
CN1C(=O)[C@@H](NC(=O)c2ncn(Cc3ccccc3)n2)CSc2cc3[nH]ncc3cc21 [RIP1-020] | 2.3e-10 M
CN1C(=O)[C@@H](NC(=O)c2cn(Cc3ccccc3)cn2)COc2cc3[nH]ncc3cc21 [RIP1-022] | 5.66e-10 M
CN1C(=O)[C@@H](NC(=O)c2nnc(Cc3ccccc3)[nH]2)COc2cc3[nH]ncc3cc21 [RIP1-023] | 2.54e-09 M
CN1C(=O)[C@@H](NC(=O)c2cn(Cc3ccccc3)nn2)COc2cc3[nH]ncc3cc21 [RIP1-024] | 2.03e-09 M
CN1C(=O)[C@@H](NC(=O)c2ncn(Cc3ccccc3)n2)COc2cc3[nH]ncc3cc21 [RIP1-025] | 2.86e-10 M
CN1C(=O)[C@@H](NC(=O)c2ncn(Cc3ccccc3)n2)CSc2cc3[nH]nc(Cl)c3cc21 [RIP1-026] | 2.8e-10 M

SMILES | IC50
CN1C(=O)[C@@H](NC(=O)c2cn(Cc3ccccc3)cn2)CSc2cc3[nH]nc(Cl)c3cc21 [RIP1-028] | 7e-11 M
CN1C(=O)[C@@H](NC(=O)c2cc(Cc3ccccc3)on2)CSc2cc3[nH]nc(Cl)c3cc21 [RIP1-029] | 1.2e-10 M
CN1C(=O)[C@@H](NC(=O)c2cn(Cc3ccccc3)cn2)CSc2cc3occc3cc21 [RIP1-036] | 1.8e-10 M
CN1C(=O)[C@@H](NC(=O)c2ncn(Cc3ccccc3)n2)CSc2cc3occc3cc21 [RIP1-037] | 1.29e-10 M
CN1C(=O)[C@@H](NC(=O)c2cc(Cc3ccccc3)on2)CSc2cc3occc3cc21 [RIP1-038] | 1.29e-10 M
CN1C(=O)[C@@H](NC(=O)c2nnc(Cc3ccccc3)[nH]2)CSc2cc3occc3cc21 [RIP1-039] | 4.5e-10 M
CN1C(=O)[C@@H](NC(=O)c2cn(Cc3ccccc3)nn2)CSc2cc3occc3cc21 [RIP1-040] | 3.6e-10 M
CN1C(=O)[C@@H](NC(=O)c2nnc(Cc3ccccc3)o2)CSc2cc3[nH]ccc3cc21 [RIP1-041] | 3.79e-10 M
CN1C(=O)[C@@H](NC(=O)c2cn(Cc3ccccc3)nn2)CSc2cc3[nH]ccc3cc21 [RIP1-042] | 1.93e-09 M
CN1C(=O)[C@@H](NC(=O)c2nnn(Cc3ccccc3)n2)CSc2cc3[nH]ccc3cc21 [RIP1-043] | 1.31e-10 M
Cc1ccc(Cc2cc(C(=O)N[C@H]3CSc4cc5[nH]ccc5cc4N(C)C3=O)n(C)n2)cc1 [RIP1-044] | 1.91e-08 M
Cc1ccc(Cc2cc(C(=O)N[C@H]3CSc4cc5[nH]ccc5cc4N(C)C3=O)nn2C)cc1 [RIP1-045] | > 2e-06 M
CN1C(=O)[C@@H](NC(=O)c2cnc(Cc3ccccc3)[nH]2)CSc2cc3[nH]ccc3cc21 [RIP1-047] | 2.15e-08 M
CN1C(=O)[C@@H](NC(=O)c2cn(Cc3ccccc3)nn2)CSc2cc3c(ccn3C)cc21 [RIP1-048] | 5.1e-09 M
CN1C(=O)[C@@H](NC(=O)c2cnc(Cc3ccccc3)[nH]2)CSc2cc3c(ccn3C)cc21 [RIP1-050] | 4.92e-07 M
CN1C(=O)[C@@H](NC(=O)c2cnnn2Cc2ccccc2)CSc2cc3[nH]ccc3cc21 [RIP1-051] | > 2e-06 M
CN1C(=O)[C@@H](NC(=O)c2cnnn2Cc2ccccc2)CSc2cc3c(ccn3C)cc21 [RIP1-052] | > 2e-06 M
CN1C(=O)[C@@H](NC(=O)c2cncn2Cc2ccccc2)CSc2cc3c(ccn3C)cc21 [RIP1-054] | > 2e-06 M
CN1C(=O)[C@@H](NC(=O)c2cn(Cc3ccccc3)cn2)CSc2cc3c(ccn3C)cc21 [RIP1-055] | 2.29e-09 M
Cc1ccc(Cc2cc(C(=O)N[C@H]3CSc4cc5c(ccn5C)cc4N(C)C3=O)nn2C)cc1 [RIP1-056] | 4.15e-08 M
Cc1ccc(Cc2cc(C(=O)N[C@H]3CSc4cc5c(ccn5C)cc4N(C)C3=O)n(C)n2)cc1 [RIP1-057] | > 2e-06 M
CN1C(=O)[C@@H](NC(=O)c2nnn(Cc3ccccc3)n2)CSc2cc3c(ccn3C)cc21 [RIP1-058] | 2.53e-10 M
Cc1nc2cc3c(cc2[nH]1)OC[C@H](NC(=O)c1cnn(Cc2ccccc2)c1)C(=O)N3C [RIP1-062] | > 2e-06 M
Cc1nc2cc3c(cc2[nH]1)OC[C@H](NC(=O)c1cn(Cc2ccccc2)nn1)C(=O)N3C [RIP1-063] | 4.57e-08 M

SMILES | IC50
Cc1nc2cc3c(cc2[nH]1)OC[C@H](NC(=O)c1cnnn1Cc1ccccc1)C(=O)N3C [RIP1-064] | > 2e-06 M
Cc1nc2cc3c(cc2[nH]1)OC[C@H](NC(=O)c1coc(Cc2ccccc2)n1)C(=O)N3C [RIP1-065] | > 2e-06 M
Cc1nc2cc3c(cc2[nH]1)OC[C@H](NC(=O)c1cccc(Cc2ccccc2)c1)C(=O)N3C [RIP1-066] | 6.7e-07 M
Cc1nc2cc3c(cc2[nH]1)OC[C@H](NC(=O)c1nnc(Cc2ccccc2)o1)C(=O)N3C [RIP1-070] | 2.15e-06 M
Cc1nc2cc3c(cc2[nH]1)OC[C@H](NC(=O)c1nnn(Cc2ccccc2)n1)C(=O)N3C [RIP1-071] | 1.71e-08 M
Cc1ccc(Cc2cc(C(=O)N[C@H]3COc4cc5[nH]c(C)nc5cc4N(C)C3=O)nn2C)cc1 [RIP1-072] | 9.65e-08 M
Cc1ccc(Cc2cc(C(=O)N[C@H]3COc4cc5[nH]c(C)nc5cc4N(C)C3=O)n(C)n2)cc1 [RIP1-073] | > 2e-06 M
CN1C(=O)[C@@H](NC(=O)c2cnn(Cc3ccccc3)c2)COc2cc3[nH]c(=O)[nH]c3cc21 [RIP1-074] | > 2e-06 M
CN1C(=O)[C@@H](NC(=O)c2nnn(Cc3ccccc3)n2)COc2cc3[nH]c(=O)[nH]c3cc21 [RIP1-075] | 4.73e-10 M
CN1C(=O)[C@@H](NC(=O)c2nc(Cc3ccccc3)n[nH]2)COc2cc3[nH]c(=O)[nH]c3cc21 [RIP1-076] | > 2e-06 M
CN1C(=O)[C@@H](NC(=O)c2cc(Cc3ccccc3)on2)COc2cc3[nH]c(C(F)(F)F)nc3cc21 [RIP1-077] | 1.68e-08 M
CN1C(=O)[C@@H](NC(=O)c2cn(Cc3ccccc3)nn2)COc2cc3[nH]c(C(F)(F)F)nc3cc21 [RIP1-078] | 3.11e-08 M
CN1C(=O)[C@@H](NC(=O)c2cnc(Cc3ccccc3)o2)COc2cc3[nH]c(C(F)(F)F)nc3cc21 [RIP1-079] | > 2e-06 M
CN1C(=O)[C@H](NC(=O)c2cc(Cc3ccccc3)on2)COc2cc3c(ccn3C)cc21 [RIP1-080] | > 2e-06 M
CN1C(=O)[C@H](NC(=O)c2nnc(Cc3ccccc3)o2)COc2cc3c(ccn3C)cc21 [RIP1-081] | > 2e-06 M
CN1C(=O)[C@H](NC(=O)c2cnn(Cc3ccccc3)c2)COc2cc3c(ccn3C)cc21 [RIP1-082] | > 2e-06 M
CN1C(=O)[C@@H](NC(=O)c2cnn(Cc3ccccc3)c2)CSc2cc3c(ccn3Cc3ccccc3)cc21 [RIP1-083] | > 2e-06 M
CN1C(=O)[C@@H](NC(=O)c2cn(Cc3ccccc3)nn2)CSc2cc3c(ccn3Cc3ccccc3)cc21 [RIP1-084] | > 2e-06 M
CN1C(=O)[C@@H](NC(=O)c2cc(Cc3ccccc3)on2)CSc2cc3c(ccn3Cc3ccccc3)cc21 [RIP1-085] | > 2e-06 M
CN1C(=O)[C@@H](NC(=O)c2ncn(Cc3ccccc3)n2)CSc2cc3c(ccn3Cc3ccccc3)cc21 [RIP1-086] | > 2e-06 M
CN1C(=O)[C@@H](NC(=O)c2cnc(Cc3ccccc3)o2)CSc2cc3c(ccn3Cc3ccccc3)cc21 [RIP1-087] | > 2e-06 M
CN1C(=O)[C@@H](NC(=O)c2cn(Cc3ccccc3)cn2)CSc2cc3c(ccn3Cc3ccccc3)cc21 [RIP1-088] | > 2e-06 M
CN1C(=O)[C@@H](NC(=O)c2nnc(Cc3ccccc3)[nH]2)CSc2ccc3ncccc3c21 [RIP1-092] | 1.05e-09 M
